{
  "source": "patent US10016397B2",
  "about": "“Selective AT2 receptor agonists for use in treatment of cachexia” (Charité-Universitaetsmedizin Berlin, priority 2013, dated 2018)",
  "key": {"[1]": {"test_system": "ascites hepatoma Yoshida AH-130 cells inoculated into male Wistar rats", "assay": "AH-130 Yoshida hepatoma cancer cachexia rat model", "conditions": "for survival / mortality (Kaplan Meier): low dose 0.2 mg/kg/day", "text": "Use of an ACE inhibitor blocks all activation of both the AT1 and AT2 receptors, therefore inhibiting the beneficial effects of angiotensin II mediated activation of the AT2 receptor.\n(§1) The ascites hepatoma Yoshida AH-130 cells (10^8) were inoculated into approx. 200 g male Wistar rats. Alternatively animals received saline injection only (sham). The animals were housed in groups of three. The day after inoculation animals were randomized into various groups as described in the methods. […] The primary endpoints of the study included survival and quality of life. Secondary endpoints included body weight and body composition as well as organ weight, which were assessed at the end of the study (or after death).\nas §1, with “randomized.” for “randomized into various groups as described in the methods.”"}, "AT1 receptor": {"biological_target": "AT1 receptor", "conditions": "read-out: Ki for AT1 receptor; cited from earlier work"}, "[2]": {"conditions": "0.2 mg/kg/d, vs placebo, listed as Compound-21"}, "[3]": {"conditions": "0.2 mg/kg/d, vs placebo, listed as compound-21"}, "[4]": {"conditions": "high dose 1.0 mg/kg/d, vs placebo, listed as Compound-21, 1 mg/kg/day"}, "[5]": {"conditions": "high dose 1.0 mg/kg/d, vs placebo, listed as compound-21, 1 mg/kg/day"}},
  "data": [
    {"smiles": "CCCCOC(=O)NS(=O)(=O)c1sc(CC(C)C)cc1-c1ccc(Cn2ccnc2)cc1", "note": "[Compound 21]", "values": [
      {"measurement": "change in body weight during the experiment", "setting": "[1]; [2]", "value": "significantly reduced loss of body weight"},
      {"measurement": "food intake on day 11 after tumor inoculation", "setting": "[1]; [2]", "value": "significantly increased food intake"},
      {"measurement": "heart weight at the end of the study", "setting": "[1]; [2]", "value": "significantly increased heart weight"},
      {"measurement": "spontaneous locomotor activity on day 11 after tumor inoculation", "setting": "[1]; [2]", "value": "significantly increased activity"},
      {"measurement": "weight of brown adipose tissue (BAT) at the end of the study", "setting": "[1]; [2]", "value": "significantly increased BAT weight"},
      {"measurement": "weight of the fast fiber type EDL at the end of the study", "setting": "[1]; [2]", "value": "significantly increased EDL weight"},
      {"measurement": "weight of the mixed fiber type gastrocnemius at the end of the study", "setting": "[1]; [2]", "value": "significantly increased gastrocnemius weight"},
      {"measurement": "weight of the slow fiber type soleus at the end of the study", "setting": "[1]; [2]", "value": "significantly increased soleus weight"},
      {"measurement": "weight of white adipose tissue (WAT) epididymal fat at the end of the study", "setting": "[1]; [2]", "value": "significantly increased WAT weight"},
      {"measurement": "change in body weight during the experiment", "setting": "[1]; [3]", "value": "attenuated"},
      {"measurement": "food intake on day 11 after tumor inoculation", "setting": "[1]; [3]", "value": "significantly improved"},
      {"measurement": "heart weight at the end of the study", "setting": "[1]; [3]", "value": "improved"},
      {"measurement": "spontaneous locomotor activity on day 11 after tumor inoculation", "setting": "[1]; [3]", "value": "significantly improved"},
      {"measurement": "weight of brown adipose tissue (BAT) at the end of the study", "setting": "[1]; [3]", "value": "improved"},
      {"measurement": "weight of the fast fiber type EDL at the end of the study", "setting": "[1]; [3]", "value": "higher compared to placebo"},
      {"measurement": "weight of the mixed fiber type gastrocnemius at the end of the study", "setting": "[1]; [3]", "value": "higher compared to placebo"},
      {"measurement": "weight of the slow fiber type soleus at the end of the study", "setting": "[1]; [3]", "value": "higher compared to placebo"},
      {"measurement": "weight of white adipose tissue (WAT) epididymal fat at the end of the study", "setting": "[1]; [3]", "value": "improved"},
      {"measurement": "weight of the fast fiber type EDL at the end of the study", "setting": "[1]; [4]", "value": "also improved EDL weight"},
      {"measurement": "weight of the slow fiber type soleus at the end of the study", "setting": "[1]; [4]", "value": "also improved soleus weight"},
      {"measurement": "weight of the fast fiber type EDL at the end of the study", "setting": "[1]; [5]", "value": "also improved"},
      {"measurement": "weight of the slow fiber type soleus at the end of the study", "setting": "[1]; [5]", "value": "also improved"},
      {"measurement": "toxicity at higher dose", "setting": "[1]; higher dose 1.0 mg/kg/d", "value": "toxic effects"},
      {"measurement": "survival (Kaplan Meier)", "setting": "[1]; higher dose 1.0 mg/kg/d, vs placebo", "value": "not effective"},
      {"measurement": "survival / mortality (Kaplan Meier)", "setting": "[1]; vs placebo, listed as Compound-21, 0.2 mg/kg/day", "value": "significantly reduced mortality"},
      {"measurement": "survival / mortality (Kaplan Meier)", "setting": "[1]; vs placebo, listed as compound-21, 0.2 mg/kg/day", "value": "significantly improved survival"},
      {"measurement": "Ki", "setting": "AT1 receptor", "value": "> 10", "unit": "µM"}
    ]},
    {"smiles": "CCOC(=O)[C@H](CCc1ccccc1)N[C@@H](C)C(=O)N1C(=O)N(C)C[C@H]1C(=O)O", "note": "[imidapril, reference compound]", "values": [
      {"measurement": "quality of life (activity and food intake)", "setting": "[1]; imidapril", "value": "did not improve quality of life"},
      {"measurement": "hazard ratio and survival", "setting": "[1]; imidapril, compared to untreated tumor-bearing animals", "value": "worse hazard ratio and survival"},
      {"measurement": "body weight loss", "setting": "[1]; imidapril, vs untreated tumor-bearing animals", "value": "dose-dependent reduction of body weight loss"}
    ]}
  ]
}
